Structures can show the parent of a compound that is named as a salt. Where two headings read alike, the source gives them in different places.
Experiments:
[1] = system: SUM149PT breast cancer cell line; experiment: CellTiter Glo cell viability / ZIP synergy in BRCA1mut model; type: cell-based; settings: single agent at the same low nM doses
Experimental: FIGS. 2A-2B are charts showing the ZIP synergy score matrix in a BRCA1mut model treated with gemcitabine at low-nanomolar concentrations (15 nM) synergizing with camonsertib 7.5 nM (2 days on (FIG. 2A) or 3 days on (FIG. 2B)). ZIP synergy scores greater than 10 indicate drug synergy and scores less than −10 indicates antagonism. Mean CTG cell viability data from 3 independent experiments were processed with SynergyFinder (https://synergyfinder.fimm.fi/; PMIDs: 35580060, 26949479). Dotted lines indicated doses exerting maximum synergy.
FIGS. 3A-3B show the synergy of gemcitabine with camonsertib in a BRCA1 mut model. […] FIG. 3B is a graph of the viability of the SUM149PT treated with the indicated compounds and schedules. Data (circles) from three independent experiments is provided with mean (bars)±SD. The P value calculated with an unpaired two-tailed Student's t-test. Cell viability was read out at day 8 with a CellTiter Glo (CTG) assay.
To assess the synergy between camonsertib and gemcitabine in a BRCA1-mutated cancer cell model in vitro, a SUM149PT breast cancer cell line was employed. The combination was administered at various dosing schedules—1, 2, or 3 day treatment with camonsertib combined with a single 4 h dose of gemcitabine (FIG. 3A).

[2] = maximum tolerated dose in mice; type: in vivo
[3] = system: SUM149PT BRCA1 mutated xenograft; type: in vivo; settings: single agents at low doses: camonsertib 10 mg/kg PO 3 days on/4 days off; gemcitabine 20 mg/kg QW; 28 days
Experimental: The relative tumor xenograft volume (FIG. 4A) and change in body weight in mice treated (FIG. 4B) is shown for mice treated with gemcitabine at 20 mg/kg QW on Day 1 and/or camonsertib at 10 mg/kg PO on different schedules weekly for 28 days. Results are expressed as mean±SEM, N=7/group in female NOD-SCID mice. Statistical differences were established by Student's T-test (GraphPad Prism v9) with Welch's correction; ns=not significant, *p<0.05, **p<0.01.
A xenograft model was employed to assess the effect of camonsertib in combination with gemcitabine on tumor formation in an animal model. Mice harboring established tumors were treated with a vehicle control, camonsertib (10 mg/kg once per day with 3 days on/4 days off), gemcitabine (20 mg/kg once per week), or a combination of both camonsertib (once per day selected from 3 days on/4 days off, 2 days on/5 days off, or 1 day on/6 days off) and gemcitabine (once per week) for 28 days.
Relative tumor xenograft volume of the mice treated with gemcitabine at 20 mg/kg QW on Day 1 and/or camonsertib at 10 mg/kg PO on different schedules weekly for 28 days is shown in FIG. 4A and the change in body weight is shown in FIG. 4B. Results are expressed as mean±SEM, N=7/group in female NOD-SCID mice. Statistical differences were established by Student's T-test (GraphPad Prism v9) with Welch's correction; ns=not significant, *p<0.05, **p<0.01.

[4] = humans, cited from earlier work

Row | SMILES | cell viability (CTG, day 8) [1] | MTD [2] | anti-tumor activity (relative tumor xenograft volume) [3] | MTD ([2]; mouse, in vivo, read-out: MTD) | mean gemcitabine peak plasma concentration ([4]; 800 mg/m^2) | mean gemcitabine peak plasma concentration ([4]; 1000 mg/m^2)
1 | C[C@@H]1COCCN1c1cc([C@]2(O)C[C@H]3CC[C@@H](C2)O3)c2cnn(-c3cc[nH]n3)c2n1 [camonsertib, (1R,5S)-3-[6-[(3R)-3-methylmorpholin-4-yl]-1-(1H-pyrazol-5-yl)pyrazolo[3,4-b]pyridin-4-yl]-8-oxabicyclo[3.2.1]octan-3-ol] | only modest effect | 30 mg/kg | reduced activity | – | – | –
2 | Nc1ccn([C@@H]2O[C@H](CO)[C@@H](O)C2(F)F)c(=O)n1 [gemcitabine, 2-Deoxy-2,2-difluorocytidine hydrochloride] | only modest effect | – | reduced activity | 100 mg/kg | 24 µM | 32 µM
